Test results: US12343326B2, “Psychoactive medicines and their use for treating psychiatric and neurological conditions and disorders” (Transcend Therapeutics, Inc., priority 2021, dated 2025)

How the values were obtained:
[1] = target: 168 GPCRs (Homo sapiens, UniProt P22888); assay: β-arrestin based GPCR screen (PathHunter / GPCRmax), agonist mode; format: cell-based; design: host or cells: PathHunter cell lines; conditions: LHCGR
Description: (§1) For agonist determination, cells were incubated with sample to induce response. […] Vehicle concentration was 1%.

[2] = target: 168 GPCRs (Homo sapiens, UniProt P25101); assay: as above; format: cell-based; design: host or cells: PathHunter cell lines; conditions: EDNRA
Sequence of 168 GPCRs (Homo sapiens, UniProt P25101) (P25101 21-427): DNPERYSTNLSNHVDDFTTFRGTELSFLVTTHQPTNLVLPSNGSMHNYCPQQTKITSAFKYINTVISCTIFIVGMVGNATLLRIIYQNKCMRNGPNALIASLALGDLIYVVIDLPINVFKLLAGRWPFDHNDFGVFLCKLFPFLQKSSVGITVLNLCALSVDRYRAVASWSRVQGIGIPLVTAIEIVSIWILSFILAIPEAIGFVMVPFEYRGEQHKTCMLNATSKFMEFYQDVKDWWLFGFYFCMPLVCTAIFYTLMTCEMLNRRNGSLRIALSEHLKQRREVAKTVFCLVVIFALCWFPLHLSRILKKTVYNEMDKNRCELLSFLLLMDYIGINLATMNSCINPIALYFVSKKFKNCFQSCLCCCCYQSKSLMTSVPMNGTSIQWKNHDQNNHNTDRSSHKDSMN
Description: as §1

[3] = target: 168 GPCRs (Homo sapiens, UniProt P43088); assay: as above; format: cell-based; design: host or cells: PathHunter cell lines; conditions: PTGFR
Sequence of 168 GPCRs (Homo sapiens, UniProt P43088) (P43088 whole entry): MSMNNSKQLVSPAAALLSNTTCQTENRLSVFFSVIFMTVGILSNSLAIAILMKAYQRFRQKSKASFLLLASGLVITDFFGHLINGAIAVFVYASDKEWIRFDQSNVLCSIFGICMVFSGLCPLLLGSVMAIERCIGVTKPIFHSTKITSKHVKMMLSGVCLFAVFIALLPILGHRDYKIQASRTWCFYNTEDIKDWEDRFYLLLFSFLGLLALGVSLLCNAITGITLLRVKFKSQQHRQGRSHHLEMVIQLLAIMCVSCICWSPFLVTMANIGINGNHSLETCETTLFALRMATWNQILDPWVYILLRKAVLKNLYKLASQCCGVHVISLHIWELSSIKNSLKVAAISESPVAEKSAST
Description: as §1

[4] = target: 168 GPCRs (Homo sapiens, UniProt P35346); assay: as above; format: cell-based; design: host or cells: PathHunter cell lines
Sequence of 168 GPCRs (Homo sapiens, UniProt P35346) (P35346 whole entry): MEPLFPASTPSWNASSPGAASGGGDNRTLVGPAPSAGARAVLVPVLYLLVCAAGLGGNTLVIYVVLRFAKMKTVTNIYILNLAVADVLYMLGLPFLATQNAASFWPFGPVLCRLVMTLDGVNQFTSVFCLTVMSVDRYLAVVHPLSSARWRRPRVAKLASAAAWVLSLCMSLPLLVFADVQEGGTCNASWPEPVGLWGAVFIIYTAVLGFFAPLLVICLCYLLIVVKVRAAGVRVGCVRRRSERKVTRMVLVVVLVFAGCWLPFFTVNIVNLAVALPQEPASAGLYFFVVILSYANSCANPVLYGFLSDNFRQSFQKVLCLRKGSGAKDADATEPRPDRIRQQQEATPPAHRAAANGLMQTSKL
Description: as §1

[5] = target: T1, 5HT5A (Homo sapiens, UniProt P47898); assay: GPCRmax screen, agonist mode; format: cell-based
T1 construct: beta-galactosidase enzyme fragment (PathHunter complementation tag); host or cells: PathHunter cell lines
T1 sequence (P47898 whole entry, the tested form may be a part): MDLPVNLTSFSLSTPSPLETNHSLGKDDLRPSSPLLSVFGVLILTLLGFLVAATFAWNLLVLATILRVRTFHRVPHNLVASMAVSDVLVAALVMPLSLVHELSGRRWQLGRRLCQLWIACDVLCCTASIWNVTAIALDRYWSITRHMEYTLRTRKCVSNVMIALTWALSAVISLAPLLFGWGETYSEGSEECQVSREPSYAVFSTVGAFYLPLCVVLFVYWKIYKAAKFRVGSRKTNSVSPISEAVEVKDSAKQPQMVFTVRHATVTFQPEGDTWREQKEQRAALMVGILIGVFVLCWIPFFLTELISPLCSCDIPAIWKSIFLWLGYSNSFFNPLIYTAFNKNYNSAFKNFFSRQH

[6] = test system: participants with PTSD; assay: IMPACT-1 Part A open-label study of methylone for PTSD; format: in vivo, human
Source text: Brief Summary: This is a two-part study to assess methylone for the management of the symptoms of PTSD. Part A is an open-label, non-controlled assessment in up to 15 evaluable participants with PTSD to assess early safety and efficacy and to confirm procedures included in the blinded portion (Part B) of the study. After completion of Part A, enrollment for Part B will begin in up to 64 participants. Part B is identical to Part A with the exception of the inclusion of a placebo arm in Part B.
For each participant in Parts A and B, the study consists of: • Screening Period (Day −28 to Day −4): Informed consent, eligibility assessment, and enrolment of eligible participants. • Baseline/Preparatory Session (Day −3 to Day −1): Baseline assessments, confirmation of eligibility, and a preparatory psychoeducation session leading to enrolment confirmation. • Treatment Period (Day 1 to Day 24): Four weekly dose sessions, with associated remote sessions. The dose sessions last at least 8 hours, or until all effects (physical and psychological) have resolved (whichever is longer). Each dose session is followed by a safety phone call 1 day after dosing and efficacy assessments 2 days after dosing. Each dosing period is video recorded for quality and training purposes. The videos may be reviewed to ensure the Mentor is adhering to the Mentor training. • Follow-Up Period (Day 29 to Day 64): Follow-Up visits for safety and efficacy occur at 1, 2, 3 and 6 weeks post-final study drug administration. In addition, there are Mentor-Led Reflection Sessions 1, 2 and 3 weeks post-final study drug administration. Participants are contacted via telephone on Day 57 (±2 days) for Follow-Up. • Discontinuations: Participants who discontinue prematurely are asked to return for an extra visit to duplicate the 6-week end-of-study (EOS) visit.
Each dose was given as an initial dose, followed by a second dose 90 minutes later. During the dosing session, participants were accompanied by a trained Mentor who provided non-directive support. After the 4-week treatment period, participants attended follow-up visits at 1, 2, 3, and 6 weeks following the last dose. Safety was assessed via standard measures including adverse events. PTSD symptoms were assessed via Clinician-Administered PTSD Scale for DSM-5 (CAPS-5), depressive symptoms were assessed via Montgomery-Asberg Depression Rating Scale (MADRS). Anti-anxiety efficacy was evaluated using the Anxiety Sub-Scale of MADRS, namely, questions (Items 3, 4, 5, 6) that address four anxiety items (inner tension, reduced sleep, reduced appetite, concentration difficulties) Changes from baseline were analyzed using a paired t-test p-values.
Methods: The IMPACT-1 study is a multi-center, two-part clinical trial. Part A has completed and was an open-label evaluation involving 14 participants with PTSD. Eligible participants are adults with severe PTSD (CAPS-5≥35) who had failed at least 1 prior treatment (pharmacotherapy and/or psychotherapy) for PTSD. […] Throughout each dosing session, participants were provided non-directive psychological support by a trained mental health practitioner. Following the 4-week treatment period, participants were followed for an additional 6 weeks to evaluate the durability of the therapeutic effect. PTSD symptom improvement was evaluated on the CAPS-5. Functioning was assessed via the 3 domains (school/work, family life, social life) of the Sheehan Disability Scale (SDS). Global improvement was measured by the CGI-I. Safety was assessed by monitoring adverse events, vital signs, and C-SSRS.
Following the 4-week treatment period, participants were followed for an additional 6 weeks to evaluate the durability of the therapeutic effect. […]

[7] = target: T2, 5HT2C receptor (Homo sapiens, UniProt P28335); assay: GPCRmax screen, antagonist mode; format: cell-based
T2 construct: beta-galactosidase enzyme fragment (PathHunter complementation tag); host or cells: PathHunter cell lines
T2 sequence (P28335 33-458): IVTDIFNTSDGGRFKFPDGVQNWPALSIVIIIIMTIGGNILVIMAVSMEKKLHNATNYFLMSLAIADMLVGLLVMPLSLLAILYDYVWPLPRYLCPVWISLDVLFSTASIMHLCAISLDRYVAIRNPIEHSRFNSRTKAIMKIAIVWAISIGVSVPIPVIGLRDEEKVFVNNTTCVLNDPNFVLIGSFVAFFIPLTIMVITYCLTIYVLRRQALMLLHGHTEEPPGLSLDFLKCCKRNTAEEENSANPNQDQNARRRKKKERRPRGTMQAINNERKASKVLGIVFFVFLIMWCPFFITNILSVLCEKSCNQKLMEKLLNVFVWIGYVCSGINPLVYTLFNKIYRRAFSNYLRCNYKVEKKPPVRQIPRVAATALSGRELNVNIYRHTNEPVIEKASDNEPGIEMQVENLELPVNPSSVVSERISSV

[8] = test system: patients with a primary diagnosis of PTSD; assay: Case series with long-term follow-up (Example 5): CGI-I, durability, safety; format: in vivo, human
Source text: The patients were not given structured psychotherapy in conjunction with methylone treatment, which differs from recent studies of MDMA that emphasize the importance of a manualized psychedelic-assisted psychotherapy model.
No protected health information was disclosed, and no consent was obtained from patients for use of their archival data. Case narratives were systematically compiled from data collected as part of routine clinical work. Diagnoses were confirmed by an experienced clinician using semi-structured interviews. Baseline symptom severity was evaluated using the Clinical Global Impressions Scale-Severity (CGI-S). Symptom improvement was evaluated using the Clinical Global Impressions Scale-Improvement (CGI-I) following dosing. […] Because these case narratives were examined retrospectively from routine clinical care records, and not gathered prospectively in a research study, more specific validated rating scales for assessing PTSD symptoms were not available. Additionally, follow-up varied, with the length of follow-up ranging from one week (Case 2) to 15 years (Case 16).
Dosing summary: Methylone was administered orally. Other medications were not changed during methylone treatment. […] In several cases, treatment was continued, and, in some cases, the dose was further escalated in later sessions (see Table 5). Booster doses were included for 19 patients in one or more of the sessions. Starting doses were between 100 and 270 mg, and these as well as booster doses were selected based on clinical judgement.

Sequence of 168 GPCRs (Homo sapiens, UniProt P22888) (P22888 27-699): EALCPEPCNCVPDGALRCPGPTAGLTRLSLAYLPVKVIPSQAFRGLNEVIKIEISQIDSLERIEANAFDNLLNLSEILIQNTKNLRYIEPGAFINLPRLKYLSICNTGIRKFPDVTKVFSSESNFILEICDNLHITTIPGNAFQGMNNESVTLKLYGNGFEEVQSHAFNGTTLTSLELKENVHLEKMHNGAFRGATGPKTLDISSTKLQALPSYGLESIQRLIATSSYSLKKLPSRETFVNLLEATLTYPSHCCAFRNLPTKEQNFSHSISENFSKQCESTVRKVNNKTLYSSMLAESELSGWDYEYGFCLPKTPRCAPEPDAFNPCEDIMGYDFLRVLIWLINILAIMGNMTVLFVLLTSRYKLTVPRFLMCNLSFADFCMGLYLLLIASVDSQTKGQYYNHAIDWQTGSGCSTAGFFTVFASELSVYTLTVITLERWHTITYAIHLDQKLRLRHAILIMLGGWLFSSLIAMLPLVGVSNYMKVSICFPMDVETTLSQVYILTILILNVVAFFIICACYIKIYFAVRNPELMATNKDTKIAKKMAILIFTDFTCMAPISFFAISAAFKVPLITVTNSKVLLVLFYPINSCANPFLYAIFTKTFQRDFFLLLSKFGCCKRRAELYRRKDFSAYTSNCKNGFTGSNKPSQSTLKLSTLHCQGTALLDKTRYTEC

## CNC(C)C(=O)c1ccc2c(c1)OCO2 (stereo not shown) [methylone, 3,4-methylenedioxy-N-methylcathinone]
[1]; Agonist mode, 10 uM
  activity at 10 µM: 0.4%
[1]; Agonist, 1 uM
  activity at 1 µM: 0.4%
[2]; Agonist mode, 10 uM
  activity at 10 µM: 1.4%
[2]; Agonist, 1 uM
  activity at 1 µM: 0.3%
[3]; Agonist mode, 10 uM
  activity at 10 µM: -0.2%
[3]; Agonist, 1 uM
  activity at 1 µM: 0.3%
[4]; SSTR5, Agonist mode, 10 uM
  activity at 10 µM: -1.3%
[4]; SSTR5, Agonist, 1 uM
  activity at 1 µM: -2.4%
[5]; 1 or 10 mM, threshold 30%
  agonist % activity, greatest activity detected: 13.9%
[5]; HTR5A, Agonist mode, 10 uM
  activity at 10 µM: 13.9%
[5]; HTR5A, Agonist, 1 uM
  activity at 1 µM: 13.6%
[6]; Day 3
  CAPS-5 scores decreased by: 8.4 points
  MADRS scores decreased by: 8.2 points
[6]; Safety Population, N = 14
  drug-related SAEs: No drug-related SAEs occurred
[6]; after treatment
  participants with absence of Distressing Dreams symptom: 77%
  participants with absence of Reduced Sleep symptom (MADRS): 62%
  participants with absence of Sleep Disturbances symptom: 62%
[6]; end of the study
  participants much or very much improved (CGI-I): all participants
[7]; 1 or 10 mM, threshold 50%
  antagonist activity (% inhibition): no agonist or antagonist activity
[7]; HTR2C, Antagonist mode, 10 uM
  activity at 10 µM: 24.2%
[7]; HTR2C, Antagonist, 1 uM
  activity at 1 µM: 21.1%
[8]; 21 patients
  discontinuation due to adverse events: no patients discontinued treatment due to adverse events
[8]; in three of the 21 patients
  total adverse events noted: four
[8]; of 21 patients
  patients achieving CGI-I of 1 (very much improved): 9 patients
  patients achieving CGI-I of 2 (much improved): 8 patients
